Experimental data: US6544166B1, “Treatment of human infertility” (priority 1999, dated 2003)
Marks after values point to notes of the source that are not given here.

What was measured:
[1] = system: mouse oocytes; assay: In vitro fertilization of mouse oocytes after in vitro maturation with or without Hx arrest and FF-MAS induction (Example 4); assay type: cell-based, mice (C57Bl/6J×DBA/2J F1-hybrids)
Method: Aim: to optimize the culture conditions for mammalian oocytes by arresting the spontaneous maturation for 4 hours before initiating oocyte maturation by the means of adding a adequate concentration of FF-MAS.
Óocytes were obtained from immature (21-24 day old) female mice (C57Bl/6J×DBA/2J F1-hybrids, M&B, Denmark) weighing 13-16 grams, which were kept under controlled lighting and temperature. […] The ovaries were dissected out and the oocytes were isolated in Hx-medium (see below) under a stereomicroscope by manual rupture of the follicles using a pair of 27 gauge needles. Spherical oocytes displaying an intact germinal vesicle (GV) were selected and placed in α-minimum essential medium (α-MEM without ribonucleosides, Gibco BRL, Cat. No. 22561) supplemented with 3 mM hypoxanthine (Sigma Cat. No. H-9377), 8 mg/ml Human Serum Albumin (HSA, State Serum Institute, Denmark), 0.23 mM pyruvate (Sigma, Cat. No. S-8636), 2 mM glutamine (Flow Cat. No. 16-801), 100 IU/ml penicillin and 100 μg/ml streptomycin (Flow, Cat. No. 16-700). This medium was designated Hx-medium. The exact same medium without Hx was designated Hx-free medium
Thus oocytes were cultured in 4-well multidishes (Nunclon, Denmark) in which each well contained 0.4 ml of Hx-medium or medium without Hx (to allow for spontaneous maturation) and 35-45 oocytes.
Different treatment groups:
1. Controls: No inhibition, No FF-MAS
2. MAS: No inhibition and 10 μM FF-MAS
3. Inhibition and then spontaneous maturation: Hx-medium for 4 hours then transfer to Hx-free medium
4. Inhibition and FF-MAS induction: Hx-medium for 4 hours and addition of FF-MAS to Hx-medium
5. Inhibition and removal of inhibition and then subsequently FF-MAS induction: Hx-medium for 4 hours, rinse, transfer to Hx-free medium and addition of FF-MAS.
In vitro fertilization following 16-20 hours maturation.
Endpoints: Fertilization rate and in vitro embryo development.

[2] = system: cumulus enclosed human oocytes; assay: Maturation of cumulus enclosed human oocytes with FF-MAS; assay type: cell-based
Description: Although the use of FF-MAS improves the rate of fertility compared to the currently applied methods, it is still desirable to increase this rate even further.

[3] = system: mouse oocytes; settings: 24 hours meiotic arrest with hypoxanthine, then 16-30 hour culture in inhibitor-free medium; cited from earlier work
[4] = Treatment No 4: Hx-medium for 4 hours and addition of FF-MAS to Hx-medium
[5] = Treatment No 5: Hx-medium for 4 hours, rinse, transfer to Hx-free medium and addition of FF-MAS
[6] = Treatment No 3: Hx-medium (3 mM hypoxanthine) for 4 hours then transfer to Hx-free medium, no FF-MAS

| Structure (SMILES) | Oocyte quality evaluated as fertilization rate and embryonic developmental capacity, compared with the other treatments ([1]; 4th treatment modality: inhibition (Hx-medium) and FF-MAS induction) | Embryo development Rate (8-cell rate at 72 hours) ([1]; Treatment No 2: no inhibition and 10 μM FF-MAS) [%] | Fertilization Rate ([1]; Treatment No 2: no inhibition and 10 μM FF-MAS, IVF following 16-20 hours maturation) [%] | Embryo development Rate (8-cell rate at 72 hours) [1, 4] [%*] | Fertilization Rate [1, 4] [%*] | Embryo development Rate (8-cell rate at 72 hours) [1, 5] [%] | Fertilization Rate [1, 5] [%] | Effect on nuclear and cytoplasmic maturation [2] | Embryo development Rate (8-cell rate at 72 hours) [1, 6] [%] | Fertilization Rate [1, 6] [%] | Arrested oocytes that resumed maturation [3] [%] |
| --- | --- | --- | --- | --- | --- | --- | --- | --- | --- | --- | --- |
| CC(C)=CCC[C@@H](C)[C@H]1CC=C2C3=C(CC[C@@]21C)[C@@]1(C)CC[C@H](O)C(C)(C)[C@@H]1CC3 [FF-MAS, 4,4-dimethyl-5α-cholesta-8,14,24-triene-3β-ol] | significantly superior to the other treatment alternatives | <10 | <50 | 30 | 75 | <10 | <50 | improves not only nuclear but cytoplasmic maturation | – | – | – |
| O=c1[nH]cnc2nc[nH]c12 [hypoxanthine, Hypoxanthine] | – | – | – | – | – | – | – | – | <10 | <50 | ~100 |
